Data as given in patent publication US20100183561A1, “Biological therapeutic compositions and methods thereof” (ARTERIOCYTE MEDICAL SYSTEMS, priority 2008, published 2010).
Counter-ions that a name gives are not always drawn.

Key:
[1] = Thrombin activation of antibiotic-enriched bovine PRP, visual observation; type: physicochemical; conditions: for Observation of PRP/Platelet Gel: gelling / Observation of PRP/Platelet Gel: precipitation or aggregation: antibiotic ~75 ug/ml final in bovine PRP, 10% CaCl2 solution, ambient conditions; for Effect on activation of PRP and gel formation / properties of PRP: smaller quantities (sufficient for local application) dissolved in CaCl2 solution, bovine PRP
Excerpt: Study Design: This example evaluated the appearance and characteristics of antibiotics-enriched bovine PRP. There were two variables in this study: 1) choice of antibiotics, and 2) presence/absence of thrombin. Two antibiotics were used to couple PRP in this study: 1) Vancomycin and 2) Cefazolin. Thrombin, a common reagent for activation of fibrinogen in PRP (for use as a gel would sealant), was used to activate platelet gel-antibiotics/PRP mixture formation, and compared to a mixture not activated by thrombin.
Preparation of Bovine PRP: 60 ml of Bovine blood (anti-coagulant added) was processed with the Magellan® system to obtain 6 ml of bovine PRP. Bovince PRP was stored in a refrigerator.
Dissolution of Antibiotics in CaCl2 solution: Initial target dose of antibiotics was based on body weight and was estimated at 1.5 mg/kg body weight per unit of PRP, or 105 mg for a 70 kg adult. 3 ml PRP was prepared from 60 ml Bovine Blood with the Magellan® System, resulting in a 2× standard concentration. 105 mg was dissolved into 3 mL of saline solution. 1 ml each of PRP Vancomycin/saline solution were combined to yield a product approximating standard PRP, containing desired amount of Vancomycin.
Vancomycin: To achieve the revised target dose of 75 ug/ml, 5 mg antibiotic was added per 6 ml 10% w/v CaCl2 solution used to reconstitute thrombin for activation of 6 ml PRP.
5 mg Vancomycin hydrochloride (Acros Organics) was dissolved into 6 ml 10% w/v CaCl2 solution at ambient conditions for a concentration of 833 ug/ml. Agitation was necessary to properly dissolve Vancomycin due to its large grain sizes.
Cefazolin: 5 mg Cefazolin hydrochloride (Alexis) was dissolved into 6 ml 10% w/v CaCl2 solution at ambient conditions for a concentration of 833 ug/ml. Slight agitation was necessary to dissolve Cefazolin.
1 kU of bovine thrombin was dissolved into 1 ml of Antibiotic/10% w/v CaCl2 solution or Vancomycin/10% w/v CaCl2 solution.
Preparation of Cefazolin- or Vancomycin-Coupled PRP: 0.6 ml of the bovine thrombin/Vancomycin/10% w/v CaCl2 solution was added to 6 ml of bovine PRP to obtain 6.6 ml of Vancomycin coupled PRP gel to produce an activated gel with a final concentration of ˜75 ug/ml.
For controls, 0.6 ml of the Vancomycin/10% w/v CaCl2 solution (without thrombin) was added to 6 ml of bovine PRP to obtain 6.6 ml of Vancomycin coupled PRP gel to produce an activated gel with a final concentration of ˜75 ug/ml.
Evaluation of Cefazolin- or Vancomycin-Coupled PRP: After mixing, the antibiotic-enriched PRP with and without thrombin were left on bench top. Visual observation was used to evaluate the appearance and characteristics of the mixture material. This process was conducted under ambient conditions.

[2] = as above; type: physicochemical; conditions: initial dose 1.05 g per unit PRP, 1 ml of 2× concentration bovine PRP + Vancomycin solution, no thrombin, Hydrochloride

Row | SMILES | Observation of PRP/Platelet Gel: gelling ([1]; Thrombin: Yes) | Observation of PRP/Platelet Gel: precipitation or aggregation ([1]; Thrombin: Yes) | Effect on activation of PRP and gel formation / properties of PRP [1] | Observation of PRP/Platelet Gel: precipitation or aggregation ([1]; Thrombin: No) | Appearance of PRP combined with antibiotic solution at initial (systemic-order) dose [2] | Appearance of PRP combined with antibiotic solution at initial (systemic-order) dose ([2]; listed as vancomycin)
1 | Cc1nnc(SCC2=C(C(=O)[O-])N3C(=O)[C@@H](NC(=O)Cn4cnnn4)[C@H]3SC2)s1.[Na+] [Cefazolin, Cefazolin Sodium Salt] | Mixture gels immediately within minutes, | no precipitation or aggregation observed. | did not appear to alter the properties PRP | – | – | –
2 | CN[C@H](CC(C)C)C(=O)N[C@H]1C(=O)N[C@@H](CC(N)=O)C(=O)N[C@H]2C(=O)N[C@H]3C(=O)N[C@H](C(=O)N[C@H](C(=O)O)c4cc(O)cc(O)c4-c4cc3ccc4O)[C@H](O)c3ccc(c(Cl)c3)Oc3cc2cc(c3O[C@@H]2O[C@H](CO)[C@@H](O)[C@H](O)[C@H]2O[C@H]2C[C@](C)(N)[C@H](O)[C@H](C)O2)Oc2ccc(cc2Cl)[C@H]1O [Vancomycin, Vancomycin Hydrochloride] | Mixture gels immediately within minutes; | – | did not interfere with or premarturely initiate activation of PRP and gel formation | white solid precipitates forming upon | Immediate aggregation of PRP into a solid | rapid formation of heterogenous solids
